Like-named read-outs stand apart in the source and are kept apart here.
Experiments:
Assay type in all cases: cell-based
Cav3.1 = molecular target: T1, Cav3.1 (Homo sapiens, UniProt O43497); test: Whole-cell patch clamp of T-type Cav3.1 channel expressed in HEK293 cells; details: Table 2
T1 construct: expressed in transfected cells; host or cells: HEK-293, tetracycline inducible expression system (Invitrogen)
Experimental: (§1) Cav3.1, Cav3.2 or Cav3.3 channels were expressed in human embryonic kidney (HEK)-293 cells using a tetracycline inducible expression system (Invitrogen). Cells were maintained in 25 cm^2 tissue culture flasks at 37° C., 5% CO2, and 100% relative humidity in D-MEM/F12 (Dulbecco's Modified Eagle Medium/Nutrient Mixture F-12; Gibco) supplemented with fetal bovine serum (FBS, 10% v/v), sodium pyruvate (0.5 mM, Gibco), penicillin-streptomycin (100 U/mL, 100 μg/mL) and Geneticin® Selective antibiotic (G418; 0.5 mg/mL). Cells were detached from the flask base using a non-enzymatic cell dissociation solution (Cellstripper, Corning), removed and re-seeded on to poly-D-lysine coated glass coverslips in 35 mm dishes.
(§2) Whole-cell voltage clamp recordings were performed on rat or mouse DRG neurons within 2 days after acutely dissociation or cultured HEK293 cells expressing T-type channels (encoded by Cav3.1, Cav3.2 or Cav3.3 channels). All experiments were performed at room temperature (around 21° C.). Whole-cell currents were recorded using a MultiClamp 700B amplifier and analyzed offline with pCLAMP10.4 software (Molecular Devices, LLC, Sunnyvale Calif., USA). […] Since the sodium ions were absent in the external solution, tetrodoctoxin was not needed. Calcium currents were recorded at a holding potential of −100 mV and then depolarized to −30 mV for 100 ms to activate either Cav3.1, Cav3.2, or Cav3.3 expressed in HEK cells. An interpulse interval of 10 seconds allowed the channel recovery from inactivation, and achieved stable current recordings. To record sodium (Na^+) currents in DRG neurons, the external solution used the modified Krebs solution specified above. The internal solution was composed (in mM) of 120 CsF, 10 HEPES, 11 EGTA, 1 CaCl2, 1 MgCl2, 10 TEA-Cl, 4 MgATP and 0.3 MgGTP (pH 7.3-7.4 adjusted with CsOH). […] To record potassium currents in DRG neurons, the external solution used the modified Kreb's solution specified above. The internal solution was composed (in mM) of 65 KCl, 80 KF, 5 KOH, 10 EGTA, 2 MgATP (pH 7.3-7.4 adjusted with KOH). Recording electrodes were fabricated using a P-87 puller (Sutter Instrument Co., Novato, Calif., USA). The tip of resistance was 3-4 MQ in bath and the series resistance was less than 10 MΩ after whole cell configuration. All reagents were purchased from Sigma unless specified otherwise. Test compounds were usually applied via a rapid solution exchange system with 8 fine polyplastic tubings (100 μm, OD) glued in a holder in parallel and located closely to the recorded cells. The current responses were normalized to the control, percent inhibition was calculated and sigmoidal dose-response curves were generated using XLFit (IDBS, Surrey, UK) or Prism (GraphPad Software, La Jolla, Calif., US) to calculate IC50 values and Hill slopes using the following equation Y=Bottom+(Top−Bottom)/(1+10^((Log EC50−X)[…])).

Cardiac Na+ channels = molecular target: T2, Cardiac Na+ channels (Homo sapiens, UniProt Q14524); test: Cardiac sodium currents in human iPSC-derived cardiomyocytes; details: for IC50: human iPSC cardiomyocytes; for inhibition at 3 µM: values in brackets, read-out: Cardiac Na+ (%) inh. at 3 μM
T2 construct: host or cells: human iPSC-derived cardiomyocytes
Experimental: Cardiac sodium channels play a critical role in heart contraction. Inhibition of these sodium channels could potentially cause severe unwanted side effects. Therefore the representative example compounds in Table 2 were tested in cardiac sodium channels. Cardiomyocytes derived from human induced pluripotent stem cells (iPSC-CM) were obtained from Axol Bioscience Ltd (Cambridge, UK). Cells were thawed and grown on matrigel coated glass coverslips in Cardiomyocyte Maintenance Medium (Axol Bioscience). […] The internal solution was composed (in mM) of 120 KF, 10 HEPES, 11 EGTA, 1 CaCl2, 1 MgCl2, 10 TEA-Cl (pH 7.2 adjusted with KOH). Sodium currents were recorded at a holding potential of −100 mV and depolarized to −20 mV. Cells were incubated with example compounds until currents reached a steady-state level. To determine IC50 values, example compounds were applied gradually from low to high concentrations. The current responses were normalized to the control, percent inhibition was calculated and a sigmoidal dose response curve was plotted to determine IC50 values as described above.

hERG channel = molecular target: T3, hERG channel (Homo sapiens, UniProt Q12809); test: hERG patch clamp in hERG-expressing CHO cells
T3 construct: expressed in transfected cells; host or cells: CHO
Experimental: Sodium and potassium channels in the rodent DRG neurons were recorded and tested as described above. The human ether-a-go-go-related gene (hERG) encodes the rapidly activating potassium channel (IKr) contributing to the repolarization of the cardiac action potential. […] Therefore the representative example compounds in Table 2 were tested against the hERG channel.
Whole-cell patch clamp electrophysiology is employed to test compounds and a positive control compound. Extracellular Ringer's solution contains (in mM): NaCl (130), KCl (5), CaCl2 (1), Glucose (10), HEPES-Na (10) (pH 7.4 adjusted with HCl). Internal pipette solution contains (in mM): KF (120), CaCl2 (1), MgCl2 (1), KCl (10), EGTA (11), HEPES (10), KOH (11) (pH 7.2 adjusted with KOH). The hERG potassium currents are recorded under a holding potential of −80 mV and then depolarized to 40 mV for 2.5 seconds to activate the hERG channel. The peak tail currents are induced by a repolarizing pulse to −50 mV for 4 seconds. A 250 millisecond prepulse to −50 mV is applied for leak subtraction. This voltage-clamp pulse protocol is performed continuously during the experiment every 20 seconds allowing recovery from inactivation. For IC50 determination, each concentration is applied for 2 mins to reach a steady-state inhibitory level prior to the next higher concentrations tested. Each concentration is tested at 2-3 times (n=2-3).

Cav3.3 = molecular target: T4, Cav3.3 (Homo sapiens, UniProt Q9P0X4); test: Whole-cell patch clamp of T-type Cav3.3 channel expressed in HEK293 cells; details: Table 2
T4 construct: expressed in transfected cells; host or cells: HEK-293, tetracycline inducible expression system (Invitrogen)
Experimental: as §1, §2

T3 sequence (Q12809 whole entry): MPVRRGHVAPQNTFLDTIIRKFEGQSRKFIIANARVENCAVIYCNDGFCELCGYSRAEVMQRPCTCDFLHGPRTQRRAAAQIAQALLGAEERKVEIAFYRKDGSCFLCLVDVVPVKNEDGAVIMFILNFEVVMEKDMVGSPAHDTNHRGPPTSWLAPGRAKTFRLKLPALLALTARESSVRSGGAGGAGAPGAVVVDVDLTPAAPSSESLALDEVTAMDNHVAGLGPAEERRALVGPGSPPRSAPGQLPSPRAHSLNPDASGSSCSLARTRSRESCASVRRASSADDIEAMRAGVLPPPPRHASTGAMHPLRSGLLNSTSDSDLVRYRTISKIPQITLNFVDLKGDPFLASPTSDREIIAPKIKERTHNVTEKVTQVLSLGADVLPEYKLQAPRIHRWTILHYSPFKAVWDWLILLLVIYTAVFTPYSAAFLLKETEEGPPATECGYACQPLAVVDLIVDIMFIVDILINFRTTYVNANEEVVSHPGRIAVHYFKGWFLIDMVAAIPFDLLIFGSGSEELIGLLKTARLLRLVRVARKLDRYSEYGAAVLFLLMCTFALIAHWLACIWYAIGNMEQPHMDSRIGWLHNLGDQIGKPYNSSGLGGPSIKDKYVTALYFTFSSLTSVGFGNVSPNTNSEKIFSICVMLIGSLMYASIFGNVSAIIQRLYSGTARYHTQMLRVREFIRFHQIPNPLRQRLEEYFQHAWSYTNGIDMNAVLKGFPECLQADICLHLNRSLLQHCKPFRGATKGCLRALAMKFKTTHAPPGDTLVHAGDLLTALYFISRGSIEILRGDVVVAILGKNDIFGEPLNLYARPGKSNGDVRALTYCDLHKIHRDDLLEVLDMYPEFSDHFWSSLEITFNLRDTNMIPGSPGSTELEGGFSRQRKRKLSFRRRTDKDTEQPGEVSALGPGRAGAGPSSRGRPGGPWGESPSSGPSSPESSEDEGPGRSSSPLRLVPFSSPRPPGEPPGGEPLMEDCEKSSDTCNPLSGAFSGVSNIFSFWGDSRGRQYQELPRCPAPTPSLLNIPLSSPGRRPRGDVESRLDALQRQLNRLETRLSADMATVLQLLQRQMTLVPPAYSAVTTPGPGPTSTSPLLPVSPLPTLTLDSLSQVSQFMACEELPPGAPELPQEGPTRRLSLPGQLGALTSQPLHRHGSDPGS
T1 sequence (O43497 whole entry): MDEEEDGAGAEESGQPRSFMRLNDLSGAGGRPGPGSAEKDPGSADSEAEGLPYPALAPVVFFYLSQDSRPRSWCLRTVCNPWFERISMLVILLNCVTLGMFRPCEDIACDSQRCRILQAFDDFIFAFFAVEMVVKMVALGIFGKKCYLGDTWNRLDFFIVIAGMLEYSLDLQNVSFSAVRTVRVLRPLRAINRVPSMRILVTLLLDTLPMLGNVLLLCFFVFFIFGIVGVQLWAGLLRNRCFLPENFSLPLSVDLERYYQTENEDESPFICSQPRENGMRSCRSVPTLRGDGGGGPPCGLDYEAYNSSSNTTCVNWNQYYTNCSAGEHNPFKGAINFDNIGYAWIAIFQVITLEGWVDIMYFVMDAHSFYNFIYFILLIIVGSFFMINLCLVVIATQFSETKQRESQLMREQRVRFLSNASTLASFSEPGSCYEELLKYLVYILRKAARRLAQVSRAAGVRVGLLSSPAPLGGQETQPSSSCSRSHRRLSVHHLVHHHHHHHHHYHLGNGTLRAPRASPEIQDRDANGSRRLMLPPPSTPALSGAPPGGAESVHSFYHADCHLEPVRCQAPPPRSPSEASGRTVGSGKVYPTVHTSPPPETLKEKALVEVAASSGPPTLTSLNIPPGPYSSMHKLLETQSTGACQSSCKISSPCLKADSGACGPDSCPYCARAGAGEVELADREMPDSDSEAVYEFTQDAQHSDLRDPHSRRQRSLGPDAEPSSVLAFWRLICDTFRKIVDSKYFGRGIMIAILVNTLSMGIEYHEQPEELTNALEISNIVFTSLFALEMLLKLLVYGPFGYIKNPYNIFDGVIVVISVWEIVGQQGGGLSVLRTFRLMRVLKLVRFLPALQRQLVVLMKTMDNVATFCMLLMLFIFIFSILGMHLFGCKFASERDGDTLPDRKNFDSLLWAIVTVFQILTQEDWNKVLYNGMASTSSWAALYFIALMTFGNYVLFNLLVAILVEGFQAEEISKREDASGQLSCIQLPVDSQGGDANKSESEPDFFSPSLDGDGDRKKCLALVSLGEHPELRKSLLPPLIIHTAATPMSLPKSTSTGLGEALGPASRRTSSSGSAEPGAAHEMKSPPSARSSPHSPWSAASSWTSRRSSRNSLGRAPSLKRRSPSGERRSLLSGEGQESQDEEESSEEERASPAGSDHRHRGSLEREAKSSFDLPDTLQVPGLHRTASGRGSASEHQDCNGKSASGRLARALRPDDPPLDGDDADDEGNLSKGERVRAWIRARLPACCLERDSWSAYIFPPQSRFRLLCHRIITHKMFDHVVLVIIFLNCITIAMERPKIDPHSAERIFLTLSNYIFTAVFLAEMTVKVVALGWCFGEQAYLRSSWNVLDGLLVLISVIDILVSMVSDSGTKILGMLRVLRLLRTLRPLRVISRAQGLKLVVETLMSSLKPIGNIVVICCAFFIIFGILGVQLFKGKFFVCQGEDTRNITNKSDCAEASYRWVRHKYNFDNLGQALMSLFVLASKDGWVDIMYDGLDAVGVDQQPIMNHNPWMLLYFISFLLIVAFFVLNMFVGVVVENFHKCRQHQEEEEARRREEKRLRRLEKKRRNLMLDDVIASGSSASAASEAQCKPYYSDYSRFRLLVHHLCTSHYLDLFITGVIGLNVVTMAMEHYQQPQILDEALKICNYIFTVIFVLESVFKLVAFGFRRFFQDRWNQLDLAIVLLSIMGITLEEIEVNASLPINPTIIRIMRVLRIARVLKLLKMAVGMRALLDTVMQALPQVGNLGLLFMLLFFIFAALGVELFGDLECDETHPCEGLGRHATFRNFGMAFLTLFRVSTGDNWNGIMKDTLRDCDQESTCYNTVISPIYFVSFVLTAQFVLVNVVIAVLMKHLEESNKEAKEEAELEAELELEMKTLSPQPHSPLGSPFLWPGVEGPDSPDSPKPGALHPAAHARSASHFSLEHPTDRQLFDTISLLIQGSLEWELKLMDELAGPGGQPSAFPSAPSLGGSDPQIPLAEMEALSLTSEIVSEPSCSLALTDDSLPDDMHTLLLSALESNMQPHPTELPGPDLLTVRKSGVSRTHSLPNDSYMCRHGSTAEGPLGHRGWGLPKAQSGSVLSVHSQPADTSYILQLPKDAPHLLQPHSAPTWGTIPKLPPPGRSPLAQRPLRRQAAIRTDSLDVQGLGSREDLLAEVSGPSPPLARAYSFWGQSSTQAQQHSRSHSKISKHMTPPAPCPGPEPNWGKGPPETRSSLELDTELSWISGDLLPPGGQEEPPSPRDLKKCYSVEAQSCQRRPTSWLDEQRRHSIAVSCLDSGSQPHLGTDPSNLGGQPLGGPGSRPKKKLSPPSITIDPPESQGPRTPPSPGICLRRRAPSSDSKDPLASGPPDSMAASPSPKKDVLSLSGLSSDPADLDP

Compound | IC50 (Cav3.1) [nM] | IC50 (Cardiac Na+ channels) [nM] | inhibition at 1 µM (hERG channel; human, CHO cells expressing hERG, pH 7.4, 1 μM, values in brackets, read-out: hERG (%) inh. at 1 μM) [%] | IC50 (Cav3.3) [nM] | IC50 (hERG channel) [nM] | IC50 (hERG channel; Table 2, read-out: hERG IC50) [nM] | hERG (%) inh. at 1 μM (hERG channel; 1 μM, values in brackets) | inhibition at 3 µM (Cardiac Na+ channels) [%]
CC(C)(C)NC(=O)CN1CCC2(CC1)C[C@H]2NC(=O)c1cc(Cl)cc(Cl)c1 (single isomer, unassigned) [Example 57, (R)—N-(6-(2-(tert-Butylamino)-2-oxoethyl)-6-azaspiro[2.5]octan-1-yl)-3,5-dichlorobenzamide or (S)—N-(6-(2-(tert-Butylamino)-2-oxoethyl)-6-azaspiro[2.5]octan-1-yl)-3,5-dichlorobenzamide] | 130 | 50900 | 22 | 98 | – | – | – | –
CC(C)(C)NC(=O)CN1CCC2(CC1)CC2NC(=O)c1cc(F)cc(Cl)c1 (single isomer, unassigned) [Example 128, (S)—N-(6-(2-(tert-Butylamino)-2-oxoethyl)-6-azaspiro[2.5]octan-1-yl)-3-chloro-5-fluorobenzamide or (R)—N-(6-(2-(tert-Butylamino)-2-oxoethyl)-6-azaspiro[2.5]octan-1-yl)-3-chloro-5-fluorobenzamide] | 60 | 83500 | – | 750 | 7000 | – | – | –
CC(C)(C)NC(=O)CN1CCC2(CC1)C[C@H]2NC(=O)c1cc(F)cc(Cl)c1 (single isomer, unassigned) [Example 129, (R)—N-(6-(2-(tert-Butylamino)-2-oxoethyl)-6-azaspiro[2.5]octan-1-yl)-3-chloro-5-fluorobenzamide or (S)—N-(6-(2-(tert-Butylamino)-2-oxoethyl)-6-azaspiro[2.5]octan-1-yl)-3-chloro-5-fluorobenzamide] | 1040 | – | – | 1630 | – | 16000 | – | –
CC(C)(C)NC(=O)CN1CCC2(CC1)C[C@H]2NC(=O)c1cc(F)cc(C(F)(F)F)c1 (single isomer, unassigned) [Example 130, (R)—N-(6-(2-(tert-Butylamino)-2-oxoethyl)-6-azaspiro[2.5]octan-1-yl)-3-fluoro-5-(trifluoromethyl)benzamide or (S)—N-(6-(2-(tert-Butylamino)-2-oxoethyl)-6-azaspiro[2.5]octan-1-yl)-3-fluoro-5-(trifluoromethyl)benzamide] | 110 | 31400 | – | 280 | – | 8000 | – | –
CC(C)(C)NC(=O)CN1CCC2(CC1)C[C@H]2C(=O)Nc1cc(C(F)(F)F)cc(C(F)(F)F)c1 (single isomer, unassigned) [Example 132, (R)—N-(3,5-Bis(trifluoromethyl)phenyl)-6-(2-(tert-butylamino)-2-oxoethyl)-6-azaspiro[2.5]octane-1-carboxamide or (S)—N-(3,5-Bis(trifluoromethyl)phenyl)-6-(2-(tert-butylamino)-2-oxoethyl)-6-azaspiro[2.5]octane-1-carboxamide] | 120 | 51600 | – | 7610 | – | – | (9%) | –
CC(C)(C)NC(=O)CN1CCC2(CC1)C[C@H]2NC(=O)c1cc(C(F)(F)F)cc(C(F)(F)F)c1 (single isomer, unassigned) [Example 144, ((R)—N-(6-(2-(tert-butylamino)-2-oxoethyl)-6-azaspiro[2.5]octan-1-yl)-3,5-bis(trifluoromethyl)benzamide or (S)—N-(6-(2-(tert-butylamino)-2-oxoethyl)-6-azaspiro[2.5]octan-1-yl)-3,5-bis(trifluoromethyl)benzamide] | 40 | 19200 | – | 250 | – | 4600 | – | –
CC(C)(C)NC(=O)CN1CCC2(CC1)C[C@H]2NC(=O)C12CC3CC(CC(C3)C1)C2 (single isomer, unassigned) [Example 145, N—((R)-6-(2-(tert-butylamino)-2-oxoethyl)-6-azaspiro[2.5]octan-1-yl)adamantane-1-carboxamide or N—((S)-6-(2-(tert-butylamino)-2-oxoethyl)-6-azaspiro[2.5]octan-1-yl)adamantane-1-carboxamide] | 70 | – | – | 310 | – | > 30000 | – | 0
CC(C)(C)CCN1CCC2(CC1)C[C@H]2NC(=O)c1cc(C(F)(F)F)cc(C(F)(F)F)c1 (single isomer, unassigned) [Example 146, (R)—N-(6-(3,3-dimethylbutyl)-6-azaspiro[2.5]octan-1-yl)-3,5-bis(trifluoromethyl)benzamide or (S)—N-(6-(3,3-dimethylbutyl)-6-azaspiro[2.5]octan-1-yl)-3,5-bis(trifluoromethyl)benzamide] | 120 | 27800 | – | 110 | – | 1200 | – | –
CC(C)(C)CCN1CCC2(CC1)C[C@H]2NC(=O)c1cc(C(F)(F)F)ccc1Cl (single isomer, unassigned) [Example 147, (R)-2-Chloro-N-(6-(3,3-dimethylbutyl)-6-azaspiro[2.5]octan-1-yl)-5-(trifluoromethyl)benzamide or (S)-2-Chloro-N-(6-(3,3-dimethylbutyl)-6-azaspiro[2.5]octan-1-yl)-5-(trifluoromethyl)benzamide] | 2410 | 43000 | – | 1580 | – | 1800 | – | –
CC(C)(C)NC(=O)CN1CCC2(CC1)CC2NC(=O)c1cc(F)cc(Cl)c1 (stereo not shown) [Example 17, N-(6-(2-(tert-Butylamino)-2-oxoethyl)-6-azaspiro[2.5]octan-1-yl)-3-chloro-5-fluorobenzamide] | 290 | – | – | 290 | 10700 | – | – | –
CC(C)(C)CCN1CCC2(CC1)CC2NC(=O)c1cc(F)cc(Cl)c1 (stereo not shown) [Example 28, 3-Chloro-N-(6-(3,3-dimethylbutyl)-6-azaspiro[2.5]octan-1-yl)-5-fluorobenzamide] | 280 | 37200 | – | 210 | 3600 | – | – | –
CC(C)(C)NC(=O)CN1CCC2(CC1)CC2C(=O)Nc1cc(F)cc(C(F)(F)F)c1 (stereo not shown) [Example 141, 6-(2-(tert-Butylamino)-2-oxoethyl)-N-(3-fluoro-5-(trifluoromethyl)phenyl)-6-azaspiro[2.5]octane-1-carboxamide] | 340 | – | – | 230 | – | 17400 | – | 28

— patent US10562857B2 (AFASCI, Inc., priority 2015, dated 2020)
